From patent publication US7795305B2, “CDDO-compounds and combination therapies thereof” (Board of Regents, The University of Texas System, priority 2000, dated 2010)
Where a name gives a salt, the structure may show the parent alone. Numbered stars: 1 amine (or outer) side, 2 acyl side, 3 side chain; on linkers, the order of the positions; unused ones are H or OH. Bridge positions count the residues as written; N and C are the ends. Square brackets hold non-standard residues; d marks the D form. Peptide text beside a SMILES is read from it. I, II: the chains in the order shown. Actinocin(9to1) = Cc1c2oc3c(C)ccc(C(=O)[*:1])c3nc-2c(C(=O)[*:2])c(N)c1=O; NMeV = CN[C@H](C(=O)O)C(C)C; Sar = CNCC(=O)O

How the values were obtained:
[1] = cited from earlier work; for peak concentration in plasma: usual clinical doses; for terminal half-life: plasma
[2] = cited from earlier work
[3] = cited from earlier work; remark: listed apart in the source
primary AML cells = test: Apoptosis in primary AML samples, subG1 DNA flow cytometry; format: cell-based, human; details: ara-C 1 μM, alone or combined
Protocol: Subjects. Samples of bone marrow or peripheral blood were obtained for in vitro studies from patients with newly diagnosed or recurrent AML with high (>70%) blast count and from patients with myeloid transformation of chronic myeloid leukemia (CML). Informed consent was obtained following institutional guidelines. Mononuclear cells were separated by Ficoll-Hypaque (Sigma Chemical Co) density-gradient centrifugation.
(§1) Suspension culture of leukemic cells. Leukemic cell lines were cultured at a density of 3.0×10^5 cells/mL, and AML mononuclear cells at 5×10^5 cells/mL in the presence or absence of indicated concentrations of CDDO-Me. Appropriate amounts of DMSO (final concentration<0.05%) was included as a control. For cytotoxicity studies, 1 μM ara-C was added to the cultures.
Cell kinetic and DNA fragmentation studies. The cell cycle kinetics was determined by staining cells with acridine orange for cellular DNA and RNA content followed by flow cytometeric analysis as described. […] Ten thousand events were stored in list mode for analysis. The percentage of cells in the “sub G1 peak” defined the proportion of apoptotic cells in the tested populations. […] Cell-cycle kinetics was analyzed using ModFit software (Verity Software House, Inc., Topsham, Me.). […]

HL-60 cells [4] = test: Viable cell count of leukemic cells in suspension culture (Trypan blue); format: cell-based, human; details: Homo sapiens, HL-60, read-out: concentration required for 50% inhibition of HL-60 cells; PPARγ ligands compared to CDDO
Protocol: as §1
CDDO. […] The percentage of proliferating cells were analyzed by FCM.
CDDO-Me. […] Mechanism of growth inhibition was analyzed on cell cycle and apoptosis in HL-60 cells.

primary AML samples = test: Annexin V staining of primary AML samples exposed to PPARγ ligands; format: cell-based, human; details: 72 hrs; 15d-PGJ2 5 μM; BRL49653, L-805645, GW347845X 25 μM
Protocol: Annexin V staining. Cells were washed in phosphate-buffered saline (PBS) and resuspended in 100 μl of binding buffer containing Annexin V (Roche Diagnostic Corporation, Indianapolis, Ind.). Cells were analyzed by flow cytometry after the addition of propidium iodide (PI). Annexin V binds to those cells that express phosphatidylserine on the outer layer of the cell membrane, and PI stains the cellular DNA of those cells with a compromised cell membrane. This allows for live cells (unstained with either fluorochrome) to be discriminated from apoptotic cells (stained only with annexin V) and necrotic cells (stained with both annexin and PI).

HL-60 cells [5] = test: Differentiation by CD11b/CD14 flow cytometry; format: cell-based, human; details: 7 days
HL-60 cells [6] = test: Differentiation by CD11b/CD14 flow cytometry; format: cell-based, human
Protocol: Immunophenotyping. The PE-conjugated anti-CD11b, FITC-conjugated anti-CD14 monoclonal antibody (mAb) (Becton Dickinson) and PE-conjugated anti-CD95 mAb (PharMingen) were used at a 1/10 dilution.
Enhancement in cellular differentiation using combinations of CDDO with ATRA were tested. […] Cell differentiation was analyzed by flow cytometry (CD14/CD11b staining). […] These experiments were repeated. […]
Finally, the inventors examined if CDDO-Me combined with ATRA would enhance differentiation. […] […] Next, combined treatment with CDDO-Me and RXR-specific ligand were tested for potentiation of anti-leukemic effects.

HL-60 cells [7] = test: CDDO-Me plus LG-100268 in HL-60 cells (Table 6); format: cell-based, human; design: unit not given here; details: 24 hrs
Protocol: (§2) Finally, the inventors examined if CDDO-Me combined with ATRA would enhance differentiation. HL-60 cells were cultured with of 0.1 μM of CDDO-Me for 72 hrs, alone or in combination with 1 μM ATRA. […] At 48 hrs, 67.4% in CDDO-Me-treated cells and 63.5% in ATRA-treated cells were CD11b+ (compared with 40% in DMSO controls), while 85% of cells were positive when both compounds were given simultaneously. These studies were repeated 3 times and yielded essentially identical results. Next, combined treatment with CDDO-Me and RXR-specific ligand were tested for potentiation of anti-leukemic effects. RXR-specific ligand LG-100268 (Ligand Pharmaceuticals) used at 10, 100 nm and 1 μM enhanced killing of HL-60 cells in a dose-dependent manner (Table 6).

HL-60 cells [8] = test: Cell cycle (S+G2M) with RXR-specific ligand; format: cell-based, human; details: 1 μM of LG-100268, combined treatment with CDDO-Me
Protocol: Cell kinetic and DNA fragmentation studies. The cell cycle kinetics was determined by staining cells with acridine orange for cellular DNA and RNA content followed by flow cytometeric analysis as described. Samples were measured in a FACScan flow cytometer (Becton Dickinson, San Jose, Calif.) using the 488-nm line of a […] argon laser and filter settings for green (530 nm) (DNA) and red (585 nm) (RNA) fluorescence. Ten thousand events were stored in list mode for analysis. The percentage of cells in the “sub G1 peak” defined the proportion of apoptotic cells in the tested populations. […] Cell-cycle kinetics was analyzed using ModFit software (Verity Software House, Inc., Topsham, Me.).
as §2, with “RXR-specific ligand LG-100268 (Ligand Pharmaceuticals) used at 10, 100 nm and 1 μM enhanced killing of HL-60 cells in a dose-dependent manner (Table 6).” left out

Compound: CC[C@]1(O)C[C@@H]2CN(CCc3c([nH]c4ccccc34)[C@@](C(=O)OC)(c3cc4c(cc3OC)N(C)[C@H]3[C@@](O)(C(=O)OC)[C@H](OC(C)=O)[C@]5(CC)C=CCN6CC[C@]43[C@@H]65)C2)C1 [Vinblastine]
- fraction of dose excreted/recovered in the urine ([1]; in vivo): Approximately 15%
- fraction recovered in the feces after biliary excretion ([1]; in vivo): about 10%
- peak concentration in plasma [1]: approximately 0.4 mM

Compound: TRAIL: member of tumor necrosis factor family of cytokines
- effect of chemotherapy in mice bearing human colon carcinoma tumors ([2]; 250-500 μg (Gliniak et al, 1999)): synergistically enhanced effect of chemotherapy
- survival of tumor-bearing mice ([2]; daily injections of 200-1000 μg (14 days) (Walczak et al., 1999)): significantly increased survival

Compound: COc1cccc2c1C(=O)c1c(O)c3c(c(O)c1C2=O)C[C@@](O)(C(C)=O)C[C@@H]3O[C@H]1C[C@H](N)[C@H](O)[C@H](C)O1 [Daunorubicin, 5,12-Naphthacenedione, (8S-cis)-8-acetyl-10-[(3-amino-2,3,6-trideoxy-α-L-lyxo-hexanopyranosyl)oxy]-7,8,9,10-tetrahydro-6,8,11-trihydroxy-10-methoxy-, hydrochloride]
- oral absorption ([1]; in vivo): Oral absorption is poor
- elimination half-life ([1]; in vivo): about 19 hr
- fraction secreted/excreted into the bile ([1]; in vivo): ~40%

Compound: COc1cccc2c1C(=O)c1c(O)c3c(c(O)c1C2=O)C[C@@](O)([C@H](C)O)C[C@@H]3O[C@H]1C[C@H](N)[C@H](O)[C@H](C)O1 [daunorubicinol]
- elimination half-life ([1]; in vivo): about 27 hr

Compound: CS(=O)(=O)OCCCCOS(C)(=O)=O [busulfan, 1,4-butanediol dimethanesulfonate]
- adults obtaining hematologic remission ([3]; previously untreated chronic myelogenous leukemia): Approximately 90%

Compound: Cc1c2oc3c(C)ccc(C(=O)N[C@@H]4C(=O)N[C@H](C(C)C)C(=O)N5CCC[C@H]5C(=O)N(C)CC(=O)N(C)[C@@H](C(C)C)C(=O)O[C@@H]4C)c3nc-2c(C(=O)N[C@@H]2C(=O)N[C@H](C(C)C)C(=O)N3CCC[C@H]3C(=O)N(C)CC(=O)N(C)[C@@H](C(C)C)C(=O)O[C@@H]2C)c(N)c1=O [Actinomycin D] (I: T[dV]P[Sar][NMeV] / II: T[dV]P[Sar][NMeV]; ester I:1-I:C, II:1-II:C; linker I:N-II:N via Actinocin(9to1))
- elimination half-life ([1]; in vivo): about 36 hr
- fraction of dose excreted/recovered in the urine ([1]; in vivo): 10%
- fraction secreted/excreted into the bile ([1]; in vivo): Half of the dose

Compound: CC[C@]1(O)C[C@H]2CN(CCc3c([nH]c4ccccc34)[C@@](C(=O)OC)(c3cc4c(cc3OC)N(C=O)[C@H]3[C@@](O)(C(=O)OC)[C@H](OC(C)=O)[C@]5(CC)C=CCN6CC[C@]43[C@@H]65)C2)C1 [Vincristine]
- terminal half-life [1]: about 24 hours
- peak concentration in plasma [1]: approximately 0.4 mM

Compound: N[C@@H](Cc1ccc(N(CCCl)CCCl)cc1)C(=O)O [Melphalan, 4-[bis(2-chloroethyl)amino]-L-phenylalanine]
- patients with favorable response ([3]; multiple myeloma, oral administration): about one third to one half

Compound: Nc1ccn([C@@H]2O[C@H](CO)[C@@H](O)[C@@H]2O)c(=O)n1 [ara-C, reference compound]
- apoptosis in AML samples (primary AML cells; CDDO 1 μM, n=23 (DMSO control 27.7±3.7%)): 41.6±4.6%
- cell killing in AML samples (primary AML cells; CDDO-Me 1 μM, n=6 (DMSO control 24.9±7.4%)): 39.8±8.2%

Compound: CO[C@@]12[C@H](COC(N)=O)C3=C(C(=O)C(C)=C(N)C3=O)N1C[C@@H]1N[C@@H]12 [Mitomycin]
- time required to reduce the serum concentration by 50% ([1]; after 30 mg bolus injection): 17 min
- fraction of dose excreted/recovered in the urine ([1]; in vivo): Approximately 10%

Compound: O=C(O)CCCc1ccc(N(CCCl)CCCl)cc1 [Chlorambucil, 4-[bis(2-chlorethyl)amino] benzenebutanoic acid]
- oral absorption ([1]; in vivo): rapidly and completely absorbed
- terminal half-life [1]: ~1.5 h

Compound: N.N.[Cl][Pt][Cl] [Cisplatin]
- oral absorption ([1]; in vivo): not absorbed orally

Compound: CN(CCOc1ccc(CC2SC(=O)NC2=O)cc1)c1ccccn1 (centres unmarked) [BRL49653, rosiglitazone]
- IC50 (HL-60 cells [4]): 25 to 50 µM
- annexin-V-positive cells (primary AML samples): 7%
- CD11b % (HL-60 cells [5]; 10 μM (15d-PGJ2 column head prints M)): 38.9%
- CD11b % (HL-60 cells [5]; 25 μM): 48.5%

Compound: Bleomycin
- fraction of dose excreted/recovered in the urine ([1]; in vivo): 60% to 70

Compound: CC1=C(/C=C/C(C)=C/C=C/C(C)=C/C(=O)O)C(C)(C)CCC1 [ATRA, all-trans-retinoic acid, reference compound]
- CD11b+ cells (HL-60 cells [6]; 48 hrs, CDDO-Me 0.1 μM, ATRA 1 μM, alone or simultaneously (DMSO controls 40%)): 63.5%
- percentage of CD14 (+) live cells (FCM) (HL-60 cells [6]; CDDO 0, ligand 1 nM): 4%
- percentage of CD14 (+) live cells (FCM) (HL-60 cells [6]; CDDO 0, ligand 10 nM): 5.2%
- percentage of CD14 (+) live cells (FCM) (HL-60 cells [6]; CDDO 0, ligand 100 nM): 4.4%
- patients achieving complete remissions ([3]; acute promyelocytic leukemia (Warrell et al., 1991)): over 90%

Compound: O=NN(CCCl)C(=O)NC1CCCCC1 [Lomustine, 1-(2-chloro-ethyl)-3-cyclohexyl-1 nitrosourea]
- radioactivity excreted as degradation products within 24 hours ([1]; oral radioactive lomustine 30 mg/m^2 to 100 mg/m^2): about half of the radioactivity

Compound: COc1cccc2c1C(=O)c1c(O)c3c(c(O)c1C2=O)C[C@@](O)(C(=O)CO)C[C@@H]3O[C@H]1C[C@H](N)[C@H](O)[C@H](C)O1 [Doxorubicin, 5,12-Naphthacenedione, (8s-cis)-10-[(3-amino-2,3,6-trideoxy-a-L-lyxo-hexopyranosyl)oxy]-7,8,9,10-tetrahydro-6,8,11-trihydroxy-8-(hydroxyacetyl)-1-methoxy-hydrochloride]
- oral absorption ([1]; in vivo): absorbed poorly
- elimination half-life ([1]; in vivo): about 30 hr
- fraction of dose excreted/recovered in the urine ([1]; in vivo): a few percent

Compound: Cc1cc2c(cc1C1(c3ccc(C(=O)O)cn3)CC1)C(C)(C)CCC2(C)C [LG-100268]
- Table 6 value: CDDO-Me-induced monocytic differentiation in HL-60 cells (HL-60 cells [7]; CDDO-Me 0, LG-100268 10 nM): 6.8
- Table 6 value: CDDO-Me-induced monocytic differentiation in HL-60 cells (HL-60 cells [7]; CDDO-Me 0, LG-100268 100 nM): 6.2
- Table 6 value: CDDO-Me-induced monocytic differentiation in HL-60 cells (HL-60 cells [7]; CDDO-Me 0, LG-100268 1 μM): 6.3
- percentage of CD14 (+) live cells (FCM) (HL-60 cells [6]; CDDO 0, ligand 1 nM): 16.6%
- percentage of CD14 (+) live cells (FCM) (HL-60 cells [6]; CDDO 0, ligand 10 nM): 9.6%
- percentage of CD14 (+) live cells (FCM) (HL-60 cells [6]; CDDO 0, ligand 100 nM): 9.4%
- percentage of cells in S+G2M decreased by (HL-60 cells [8]): 50%
